Laboratory results reported in PubChem BioAssay AID1918956 (Molecular Pharmacology Branch, DTP, NCI, 2023).

Tested on: OVCAR-5 complex spheroids, viability
Test: Anticancer human tumor OVCAR-5 cell line growth inhibition;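 note: spheroids exposed to agents for seven days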;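 for viability, T/C: 100% = DMSO vehicle control wells viability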
Conditions: for IC50: curve of first compound; for viability, T/C: stronger effect = lower value
Summary of the method: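 Multicellular complex spheroids of tumor cells with human endothelial cells (HUVEC) and mesenchymal stem cells; the LSD1 inhibitor iadademstat was combined with standard-of-care or investigational agents. Top concentration at or near clinical Cmax, half-log dilutions; final DMSO ≤0.25%.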

[1] = second compound 0.1 µM, first compound 0.000316 µM
[2] = second compound 0.1 µM, first compound 0.001 µM
[3] = second compound 0.1 µM, first compound 0.00316 µM
[4] = second compound 0.1 µM, first compound 0.01 µM
[5] = second compound 0.1 µM, first compound 0.0316 µM
[6] = second compound 0.1 µM, first compound 0.1 µM
[7] = second compound 0.316 µM, first compound 0.000316 µM
[8] = second compound 0.316 µM, first compound 0.001 µM
[9] = second compound 0.316 µM, first compound 0.00316 µM
[10] = second compound 0.316 µM, first compound 0.01 µM
[11] = second compound 0.316 µM, first compound 0.0316 µM
[12] = second compound 0.316 µM, first compound 0.1 µM
[13] = second compound 1 µM, first compound 0.000316 µM
[14] = second compound 1 µM, first compound 0.001 µM
[15] = second compound 1 µM, first compound 0.00316 µM
[16] = second compound 1 µM, first compound 0.01 µM
[17] = second compound 1 µM, first compound 0.0316 µM
[18] = second compound 1 µM, first compound 0.1 µM
[19] = second compound 3.16 µM, first compound 0.000316 µM
[20] = second compound 3.16 µM, first compound 0.001 µM
[21] = second compound 3.16 µM, first compound 0.00316 µM
[22] = second compound 3.16 µM, first compound 0.01 µM
[23] = second compound 3.16 µM, first compound 0.0316 µM
[24] = second compound 3.16 µM, first compound 0.1 µM
[25] = second compound 10 µM, first compound 0.000316 µM
[26] = second compound 10 µM, first compound 0.001 µM
[27] = second compound 10 µM, first compound 0.00316 µM
[28] = second compound 10 µM, first compound 0.01 µM
[29] = second compound 10 µM, first compound 0.0316 µM
[30] = second compound 10 µM, first compound 0.1 µM

For `CC(C)CC(NC(=O)CNC(=O)c1cc(Cl)ccc1Cl)B1OC(=O)CC(CC(=O)O)(C(=O)O)O1` (stereo not given) + NC1CCC(NC2CC2c2ccccc2)CC1, the IC50 (second compound 0.1 µM) was > 100 nM, the IC50 (second compound 0.316 µM) was > 100 nM and the IC50 (second compound 1 µM) was > 100 nM. The IC50 (second compound 3.16 µM) was > 100 nM, the IC50 (second compound 10 µM) was > 100 nM and the viability, T/C [1] was 96.8%. For the same molecule, the viability, T/C [2] was 95%, the viability, T/C [3] was 108% and the viability, T/C [4] was 91.5%. For the same molecule, the viability, T/C [5] was 89.7%, the viability, T/C [6] was 71.8% and the viability, T/C [7] was 97.5%. It also gave a viability, T/C [8] of 112%, a viability, T/C [9] of 113% and a viability, T/C [10] of 83.6%. The viability, T/C [11] was 85.2%, the viability, T/C [12] was 70.8% and the viability, T/C [13] was 103%. The viability, T/C [14] was 93.7%, the viability, T/C [15] was 110% and the viability, T/C [16] was 95.1%. The viability, T/C [17] was 80.7%, the viability, T/C [18] was 71.4% and the viability, T/C [19] was 101%. It also gave a viability, T/C [20] of 103%, a viability, T/C [21] of 95.6% and a viability, T/C [22] of 76.5%. For the same molecule, the viability, T/C [23] was 77.7%, the viability, T/C [24] was 64.6% and the viability, T/C [25] was 98.1%. The viability, T/C [26] was 79.8%, the viability, T/C [27] was 89.1% and the viability, T/C [28] was 86.7%. For the same molecule, the viability, T/C [29] was 76.5% and the viability, T/C [30] was 56.6%.
`Cn1ncnc1C1c2n[nH]c(=O)c3cc(F)cc(c23)NC1c1ccc(F)cc1` (stereo not given) + NC1CC1c1ccc(-c2cccc(O)c2)cc1 was tested, and the IC50 (second compound 0.1 µM) was > 100 nM, the IC50 (second compound 0.316 µM) was > 100 nM and the IC50 (second compound 1 µM) was > 100 nM. The IC50 (second compound 3.16 µM) was > 100 nM, the IC50 (second compound 10 µM) was > 100 nM and the viability, T/C [1] was 101%. For the same molecule, the viability, T/C [2] was 94.1%, the viability, T/C [3] was 85.4% and the viability, T/C [4] was 95.3%. For the same molecule, the viability, T/C [5] was 83.2%, the viability, T/C [6] was 77.8% and the viability, T/C [7] was 94.6%. It also gave a viability, T/C [8] of 99.3%, a viability, T/C [9] of 95.1% and a viability, T/C [10] of 89.9%. For the same molecule, the viability, T/C [11] was 93%, the viability, T/C [12] was 91.9% and the viability, T/C [13] was 81.3%. For the same molecule, the viability, T/C [14] was 91.4%, the viability, T/C [15] was 89.7% and the viability, T/C [16] was 79.5%. The viability, T/C [17] was 92.8%, the viability, T/C [18] was 85.6% and the viability, T/C [19] was 88.4%. It also gave a viability, T/C [20] of 94.2%, a viability, T/C [21] of 88.1% and a viability, T/C [22] of 81.9%. For the same molecule, the viability, T/C [23] was 74.3%, the viability, T/C [24] was 73.2% and the viability, T/C [25] was 82.6%. It also gave a viability, T/C [26] of 96.6%, a viability, T/C [27] of 85.5% and a viability, T/C [28] of 78.2%. The viability, T/C [29] was 72.6% and the viability, T/C [30] was 80.3%.
For `Nc1ncn(C2CC(O)C(CO)O2)c(=O)n1` (stereo not given) + NC1CCC(NC2CC2c2ccccc2)CC1, the IC50 (second compound 0.1 µM) was > 1000 nM, the IC50 (second compound 0.316 µM) was > 1000 nM and the IC50 (second compound 1 µM) was > 1000 nM. For the same molecule, the IC50 (second compound 3.16 µM) was > 1000 nM, the IC50 (second compound 10 µM) was > 1000 nM and the viability, T/C [3] was 103%. For the same molecule, the viability, T/C [4] was 104%, the viability, T/C [5] was 94.4% and the viability, T/C [6] was 89.5%. For the same molecule, the viability, T/C (second compound 0.1 µM, first compound 0.316 µM) was 75.5%, the viability, T/C (second compound 0.1 µM, first compound 1 µM) was 79% and the viability, T/C [9] was 97.7%. It also gave a viability, T/C [10] of 104%, a viability, T/C [11] of 81.4% and a viability, T/C [12] of 79.6%. It also gave a viability, T/C (second compound 0.316 µM, first compound 0.316 µM) of 78.4%, a viability, T/C (second compound 0.316 µM, first compound 1 µM) of 78.4% and a viability, T/C [15] of 91.8%. It also gave a viability, T/C [16] of 82.3%, a viability, T/C [17] of 79.6% and a viability, T/C [18] of 81.3%. For the same molecule, the viability, T/C (second compound 1 µM, first compound 0.316 µM) was 76%, the viability, T/C (second compound 1 µM, first compound 1 µM) was 73.7% and the viability, T/C [21] was 91.6%. For the same molecule, the viability, T/C [22] was 93.3%, the viability, T/C [23] was 78.2% and the viability, T/C [24] was 76.8%. For the same molecule, the viability, T/C (second compound 3.16 µM, first compound 0.316 µM) was 70.5%, the viability, T/C (second compound 3.16 µM, first compound 1 µM) was 66.6% and the viability, T/C [27] was 83.7%. The viability, T/C [28] was 83.1%, the viability, T/C [29] was 79.1% and the viability, T/C [30] was 67.1%. The viability, T/C (second compound 10 µM, first compound 0.316 µM) was 61.9% and the viability, T/C (second compound 10 µM, first compound 1 µM) was 66%.
In the case of `Nc1ccn(C2OC(CO)C(O)C2(F)F)c(=O)n1` (stereo not given) + NC1CC1c1ccc(-c2cccc(O)c2)cc1, the IC50 (second compound 0.1 µM) is reported as < 0.949 nM, the IC50 (second compound 0.316 µM) is reported as < 0.949 nM and the IC50 (second compound 1 µM) is reported as < 0.949 nM. For the same molecule, the IC50 (second compound 3.16 µM) was < 0.949 nM, the IC50 (second compound 10 µM) was < 0.949 nM and the viability, T/C (second compound 0.1 µM, first compound 0.000949 µM) was 25.5%. For the same molecule, the viability, T/C (second compound 0.1 µM, first compound 0.003 µM) was 27.5%, the viability, T/C (second compound 0.1 µM, first compound 0.00949 µM) was 26.3% and the viability, T/C (second compound 0.1 µM, first compound 0.03 µM) was 27.9%. It also gave a viability, T/C (second compound 0.1 µM, first compound 0.0949 µM) of 24.9%, a viability, T/C (second compound 0.1 µM, first compound 0.3 µM) of 26.1% and a viability, T/C (second compound 0.316 µM, first compound 0.000949 µM) of 26.9%. The viability, T/C (second compound 0.316 µM, first compound 0.003 µM) was 26.6%, the viability, T/C (second compound 0.316 µM, first compound 0.00949 µM) was 28% and the viability, T/C (second compound 0.316 µM, first compound 0.03 µM) was 27.6%. It also gave a viability, T/C (second compound 0.316 µM, first compound 0.0949 µM) of 27.1%, a viability, T/C (second compound 0.316 µM, first compound 0.3 µM) of 28.5% and a viability, T/C (second compound 1 µM, first compound 0.000949 µM) of 27.1%. For the same molecule, the viability, T/C (second compound 1 µM, first compound 0.003 µM) was 25%, the viability, T/C (second compound 1 µM, first compound 0.00949 µM) was 24.1% and the viability, T/C (second compound 1 µM, first compound 0.03 µM) was 27.9%. The viability, T/C (second compound 1 µM, first compound 0.0949 µM) was 24.8%, the viability, T/C (second compound 1 µM, first compound 0.3 µM) was 25.4% and the viability, T/C (second compound 3.16 µM, first compound 0.000949 µM) was 27.5%. The viability, T/C (second compound 3.16 µM, first compound 0.003 µM) was 28.6%, the viability, T/C (second compound 3.16 µM, first compound 0.00949 µM) was 27.1% and the viability, T/C (second compound 3.16 µM, first compound 0.03 µM) was 27.9%. It also gave a viability, T/C (second compound 3.16 µM, first compound 0.0949 µM) of 29.5%, a viability, T/C (second compound 3.16 µM, first compound 0.3 µM) of 25.9% and a viability, T/C (second compound 10 µM, first compound 0.000949 µM) of 29%. The viability, T/C (second compound 10 µM, first compound 0.003 µM) was 29.1%, the viability, T/C (second compound 10 µM, first compound 0.00949 µM) was 28.6% and the viability, T/C (second compound 10 µM, first compound 0.03 µM) was 26.9%. The viability, T/C (second compound 10 µM, first compound 0.0949 µM) was 28.9% and the viability, T/C (second compound 10 µM, first compound 0.3 µM) was 28.4%.
Work on `CC(C)CC(NC(=O)C(Cc1ccccc1)NC(=O)c1cnccn1)B(O)O` (stereo not given) + NC1CC1c1ccc(-c2cccc(O)c2)cc1 yielded an IC50 (second compound 0.1 µM) of 7.35 nM, an IC50 (second compound 0.316 µM) of 6.68 nM and an IC50 (second compound 1 µM) of 6.31 nM. It also gave an IC50 (second compound 3.16 µM) of 4.44 nM, an IC50 (second compound 10 µM) of 4.52 nM and a viability, T/C [1] of 111%. For the same molecule, the viability, T/C [2] was 103%, the viability, T/C [3] was 75.8% and the viability, T/C [4] was 40.9%. For the same molecule, the viability, T/C [5] was 14.8%, the viability, T/C [6] was 5.74% and the viability, T/C [7] was 111%. The viability, T/C [8] was 98.8%, the viability, T/C [9] was 74.6% and the viability, T/C [10] was 37.5%. It also gave a viability, T/C [11] of 10.7%, a viability, T/C [12] of 3.96% and a viability, T/C [13] of 100%. For the same molecule, the viability, T/C [14] was 103%, the viability, T/C [15] was 71.6% and the viability, T/C [16] was 35%. It also gave a viability, T/C [17] of 10.2%, a viability, T/C [18] of 2.99% and a viability, T/C [19] of 101%. For the same molecule, the viability, T/C [20] was 70.5%, the viability, T/C [21] was 65.7% and the viability, T/C [22] was 32.3%. It also gave a viability, T/C [23] of 12.6%, a viability, T/C [24] of 3.14% and a viability, T/C [25] of 81%. For the same molecule, the viability, T/C [26] was 87%, the viability, T/C [27] was 57.4% and the viability, T/C [28] was 27.6%. For the same molecule, the viability, T/C [29] was 8.96% and the viability, T/C [30] was 1.75%.
